# Experiment: Additives for improving re-solubility during storage, mannitol as excipient
# Type: physicochemical
# Details: lyophilized, KRN7000 200 µg/ml, Polysorbate 20 0.5%, 25°C
# Procedure: First, Polysorbate 20 was dissolved in distilled water in a concentration of 0.5%, and mannitol and a variety of additives such concentrations as listed in Table 8. Next, 20 mg of the active component (KRN7000) was weighed and stirred in 100 ml of the solvents in a heated bath to 80°C for 20 minutes in order to form a solution. After cooling with running water, the mixture was filtered through a 0.22 µm filter, and transparent colorless glass vials having a volume of 5 ml were charged with a 1 ml portion of each of a variety of solutions thus obtained and subjected to lyophilization. Lyophilization was carried out under the condition of preliminary freezing at -40°C for 2 hours and drying at -20°C for 24 hours, 10°C for 12 hours, and finally at 25°C for 5 hours to give the lyophilized product. The degree of vacuum was set at 0.1 Torr or less during drying step.
# After the lyophilization step, the lyophilized composition was stored at 25°C. After storage for 1 month, the lyophilized composition was reconstituted in 1 ml of distilled water for injection, left standing for 30 minutes, and solubility was judged when the foams generated on reconstitution disappeared. The samples judged in solution were further stored, and judged again of their solubility after 4 months.
# The solubility was judged by cleaning the outside of the vial and placing it beneath the white light source in a darkroom for observation with naked eye at the position of a luminous intensity of about 5,000 lux. When the sample was clear with no precipitates, it was judged that the active component was dissolved.
compound,measurement,setting,value
"CCCCCCCCCCCCCCCCCCCCCCCCCC(=O)N[C@@H](CO[C@H]1O[C@H](CO)[C@H](O)[C@H](O)[C@H]1O)[C@H](O)[C@H](O)CCCCCCCCCCCCCC [KRN7000, (2S,3S,4R)-1-(α-D-galactopyranosyloxy)-2-hexacosanoylamino-3,4-octadecanediol]",Re-solubility after storage (by naked eye),"Mannitol 10%, Sodium deoxycholate, 1%, 1 month",- (- dissolved)
same,Re-solubility after storage (by naked eye),"Mannitol 10%, Sodium deoxycholate, 1%, 4 months",- (- dissolved)
same,Re-solubility after storage (by naked eye),"Mannitol 10%, no additive, 1 month",- (- dissolved)
same,Re-solubility after storage (by naked eye),"Mannitol 10%, no additive, 4 months",+ (+ not dissolved (or deposited))
same,Re-solubility after storage (by naked eye),"Mannitol 15%, Glycerol, 0.1%, 1 month",+ (+ not dissolved (or deposited))
same,Re-solubility after storage (by naked eye),"Mannitol 15%, Glycerol, 0.1%, 4 months",+ (+ not dissolved (or deposited))
same,Re-solubility after storage (by naked eye),"Mannitol 15%, Glycerol, 1%, 1 month",+ (+ not dissolved (or deposited))
same,Re-solubility after storage (by naked eye),"Mannitol 15%, Glycerol, 1%, 4 months",+ (+ not dissolved (or deposited))
same,Re-solubility after storage (by naked eye),"Mannitol 15%, PEG400, 1%, 1 month",+ (+ not dissolved (or deposited))
same,Re-solubility after storage (by naked eye),"Mannitol 15%, PEG400, 1%, 4 months",+ (+ not dissolved (or deposited))
same,Re-solubility after storage (by naked eye),"Mannitol 15%, Sodium deoxycholate, 1%, 1 month",+ (+ not dissolved (or deposited))
same,Re-solubility after storage (by naked eye),"Mannitol 15%, Sodium deoxycholate, 1%, 4 months",+ (+ not dissolved (or deposited))
same,Re-solubility after storage (by naked eye),"Mannitol 15%, no additive, 1 month",+ (+ not dissolved (or deposited))
same,Re-solubility after storage (by naked eye),"Mannitol 15%, no additive, 4 months",+ (+ not dissolved (or deposited))
